Tests used:
HIV-1 pNL4-3 [1] = assay: Chronically HIV-1 infected HeLa-CD4 cells, viral RNA by qRT-PCR / p24; type: cell-based; settings: Human immunodeficiency virus 1; read-out: EC50 for abrogating chronic HIV infection
Description: FIG. 1G: p24 antigen quantification. Viral supernatants recovered from cells described in FIG. 1B, grown for 60 days, were assayed for their p24 antigen content using a sandwich ELISA kit. Error bars represent standard deviations.
First-strand cDNA from RNA for qPCR was prepared using […]™ first-strand cDNA kit (Invitrogen), following the manufacturer's instructions, using approximately 5 μg of RNA as starting material and random hexamers as first-strand primers. Quantitative PCR was performed with an aliquot of cDNA as template, using […]® 480 SYBR Green I Master (Roche) in a 20 μL reaction according to the manufacturer's instructions. […] The primers used were as follows: […]
Such an early time point rules out de novo infections. […] This conclusion was further supported by the fact that treatment of cells that were chronically infected, and therefore continuously shedding the virus (without incurring new infections, due to down-regulation of CD4 from the cell surface), reduced virus production to undetectable levels (FIG. 1F). […] Results were similar when viral release from cells treated for 60 days were measured by p24 enzyme-linked immunosorbent assay (ELISA) (FIG. 1G).

HIV-1 pNL4-3 [2] = assay: Acute HIV-1 infection, HeLa-CD4-LTR-LacZ reporter CPRG assay; type: cell-based
Description: Forty-eight hours post infection a quantitative chlorophenol red-β-D-galactopyranoside (CPRG) assay was performed.
Twenty-four hours later HIV-1 pNL4-3 was added to the cells of both experiment sets (MOI>>10) in the presence of testing compound or DMSO control. CPRG assay performed 48 h later.
HeLa-CD4 cells were infected with HIV-1 pNL4-3 in the presence of the indicated compounds or DMSO. Forty hours post infection a CPRG assay was performed. […] Error bars represent standard deviation.
P42 cells were plated at 1×10^4 cells per well of 96 well. Twenty-four hours later HIV-1 pNL4-3 was added to the wells in the presence of testing compound or DMSO control in a total volume of […] Forty hours post infection cells were disrupted in lysis buffer (60 mM Na2HPO4, 40 mM NaH2PO4, 10 mM KCl, 10 mM MgSO4, 2.5 mM EDTA, 50 mM β-mercaptoethanol, 0.125% Nonidet P-40) and a quantitative chlorophenol red-β-D-galactopyranoside (CPRG)-based (Boehringer Mannheim) assay was performed. The cell extracts were incubated in a reaction buffer (0.9 M phosphate buffer [pH 7.4], 9 mM MgCl2, 11 mM β-mercaptoethanol, 7 mM CPRG) until a red color developed (from approximately 10 min to 4 h) and measured with an LP400 (Becton Dickinson) plate reader at 572 nm. Experiments were performed in triplicate.
Transcription of the HIV-1 provirus is regulated by both viral and cellular transcription factors. Before Tat is produced, low-level basal transcription from the viral promoter is initiated by cellular factors, such as the nuclear factor-kappa B (NF-kB), Sp1, TATA-binding protein and RNAPII. A desirable Tat inhibitor should block Tat-mediated activation of the viral promoter without affecting its basal transcription, which would result in cellular toxicity, given the shared transcription factors of the HIV promoter and cellular genes.

HeLa-CD4 cells = assay: MTT mitochondrial metabolic activity (cell viability); type: cell-based
Tat = assay: Biotinylated compound streptavidin-bead pull-down of Tat; type: binding, HIV-1; settings: for competition for binding of recombinant Tat to Bio-dCA: excess competitor
Description: (§1) HEK293T cells were transfected with flag-tagged Tat 101 a.a. (Tat-F-101-wt), a shorter Tat version with 86 a.a. (Tat-F-86-wt), Tat 86 a.a. mutated in the basic domain (Tat-F-BRM), flag-tagged CDK11 (CDK11-F), flag-tagged 9G8 (9G8-F) and empty vector control.
Recombinant Tat protein was incubated with Bio-dCA streptavidin-coated beads in the presence or absence of an excess of non-biotinylated dCA (represented as molar equivalent [eq.] of Bio-dCA). Raltegravir and recombinant GST-9G8 were used as a negative control competitor or as negative protein-binding control, respectively.
(§2) DYNABEADS® MYONE™ Streptavidin T1 (12.5 μl slurry) (Invitrogen) were pre-saturated with 1.88 μl of 1 mM in DMSO of Biotin alone or Bio-dCA and incubated for 1 h at room temperature with orbital rocking, plus an additional 30 min with Biotin (0.63 μl of 1 mM in DMSO). Protein extracts (250 μg per sample) were incubated with the pre-saturated beads in lysis buffer supplemented with 0.1% BSA for 1 h at 4° C. with orbital rocking. After incubation, the beads were washed three times with lysis buffer.
For the pull-down of recombinant Tat (#2222 of NIH) and GST-9G8, streptavidin-agarose beads (40 μl slurry) were pre-saturated with 1.5 μl of 1 mM in DMSO, Biotin alone, or Bio-dCA and incubated for 1 h at room temperature. […] After incubation, the beads were washed three times with PBS and proteins were eluted as before.

[3] = tested on: basic region Tat mutant (Tat-1 BRM); assay: Biotinylated compound pull-down of basic region Tat mutant; type: binding, HIV-1
Description: as §1, §2

[4] = target: T1, DNA-dependent protein kinase (DNA-PK) catalytic subunit (Homo sapiens, UniProt P78527); assay: Bio-CA pull-down / mass spectrometry, DNA-PK; type: binding
T1 construct: endogenous in cells; host or cells: P42 (HeLa-CD4-LTR-LacZ) cells; HEK293T cells
T1 sequence (P78527 whole entry): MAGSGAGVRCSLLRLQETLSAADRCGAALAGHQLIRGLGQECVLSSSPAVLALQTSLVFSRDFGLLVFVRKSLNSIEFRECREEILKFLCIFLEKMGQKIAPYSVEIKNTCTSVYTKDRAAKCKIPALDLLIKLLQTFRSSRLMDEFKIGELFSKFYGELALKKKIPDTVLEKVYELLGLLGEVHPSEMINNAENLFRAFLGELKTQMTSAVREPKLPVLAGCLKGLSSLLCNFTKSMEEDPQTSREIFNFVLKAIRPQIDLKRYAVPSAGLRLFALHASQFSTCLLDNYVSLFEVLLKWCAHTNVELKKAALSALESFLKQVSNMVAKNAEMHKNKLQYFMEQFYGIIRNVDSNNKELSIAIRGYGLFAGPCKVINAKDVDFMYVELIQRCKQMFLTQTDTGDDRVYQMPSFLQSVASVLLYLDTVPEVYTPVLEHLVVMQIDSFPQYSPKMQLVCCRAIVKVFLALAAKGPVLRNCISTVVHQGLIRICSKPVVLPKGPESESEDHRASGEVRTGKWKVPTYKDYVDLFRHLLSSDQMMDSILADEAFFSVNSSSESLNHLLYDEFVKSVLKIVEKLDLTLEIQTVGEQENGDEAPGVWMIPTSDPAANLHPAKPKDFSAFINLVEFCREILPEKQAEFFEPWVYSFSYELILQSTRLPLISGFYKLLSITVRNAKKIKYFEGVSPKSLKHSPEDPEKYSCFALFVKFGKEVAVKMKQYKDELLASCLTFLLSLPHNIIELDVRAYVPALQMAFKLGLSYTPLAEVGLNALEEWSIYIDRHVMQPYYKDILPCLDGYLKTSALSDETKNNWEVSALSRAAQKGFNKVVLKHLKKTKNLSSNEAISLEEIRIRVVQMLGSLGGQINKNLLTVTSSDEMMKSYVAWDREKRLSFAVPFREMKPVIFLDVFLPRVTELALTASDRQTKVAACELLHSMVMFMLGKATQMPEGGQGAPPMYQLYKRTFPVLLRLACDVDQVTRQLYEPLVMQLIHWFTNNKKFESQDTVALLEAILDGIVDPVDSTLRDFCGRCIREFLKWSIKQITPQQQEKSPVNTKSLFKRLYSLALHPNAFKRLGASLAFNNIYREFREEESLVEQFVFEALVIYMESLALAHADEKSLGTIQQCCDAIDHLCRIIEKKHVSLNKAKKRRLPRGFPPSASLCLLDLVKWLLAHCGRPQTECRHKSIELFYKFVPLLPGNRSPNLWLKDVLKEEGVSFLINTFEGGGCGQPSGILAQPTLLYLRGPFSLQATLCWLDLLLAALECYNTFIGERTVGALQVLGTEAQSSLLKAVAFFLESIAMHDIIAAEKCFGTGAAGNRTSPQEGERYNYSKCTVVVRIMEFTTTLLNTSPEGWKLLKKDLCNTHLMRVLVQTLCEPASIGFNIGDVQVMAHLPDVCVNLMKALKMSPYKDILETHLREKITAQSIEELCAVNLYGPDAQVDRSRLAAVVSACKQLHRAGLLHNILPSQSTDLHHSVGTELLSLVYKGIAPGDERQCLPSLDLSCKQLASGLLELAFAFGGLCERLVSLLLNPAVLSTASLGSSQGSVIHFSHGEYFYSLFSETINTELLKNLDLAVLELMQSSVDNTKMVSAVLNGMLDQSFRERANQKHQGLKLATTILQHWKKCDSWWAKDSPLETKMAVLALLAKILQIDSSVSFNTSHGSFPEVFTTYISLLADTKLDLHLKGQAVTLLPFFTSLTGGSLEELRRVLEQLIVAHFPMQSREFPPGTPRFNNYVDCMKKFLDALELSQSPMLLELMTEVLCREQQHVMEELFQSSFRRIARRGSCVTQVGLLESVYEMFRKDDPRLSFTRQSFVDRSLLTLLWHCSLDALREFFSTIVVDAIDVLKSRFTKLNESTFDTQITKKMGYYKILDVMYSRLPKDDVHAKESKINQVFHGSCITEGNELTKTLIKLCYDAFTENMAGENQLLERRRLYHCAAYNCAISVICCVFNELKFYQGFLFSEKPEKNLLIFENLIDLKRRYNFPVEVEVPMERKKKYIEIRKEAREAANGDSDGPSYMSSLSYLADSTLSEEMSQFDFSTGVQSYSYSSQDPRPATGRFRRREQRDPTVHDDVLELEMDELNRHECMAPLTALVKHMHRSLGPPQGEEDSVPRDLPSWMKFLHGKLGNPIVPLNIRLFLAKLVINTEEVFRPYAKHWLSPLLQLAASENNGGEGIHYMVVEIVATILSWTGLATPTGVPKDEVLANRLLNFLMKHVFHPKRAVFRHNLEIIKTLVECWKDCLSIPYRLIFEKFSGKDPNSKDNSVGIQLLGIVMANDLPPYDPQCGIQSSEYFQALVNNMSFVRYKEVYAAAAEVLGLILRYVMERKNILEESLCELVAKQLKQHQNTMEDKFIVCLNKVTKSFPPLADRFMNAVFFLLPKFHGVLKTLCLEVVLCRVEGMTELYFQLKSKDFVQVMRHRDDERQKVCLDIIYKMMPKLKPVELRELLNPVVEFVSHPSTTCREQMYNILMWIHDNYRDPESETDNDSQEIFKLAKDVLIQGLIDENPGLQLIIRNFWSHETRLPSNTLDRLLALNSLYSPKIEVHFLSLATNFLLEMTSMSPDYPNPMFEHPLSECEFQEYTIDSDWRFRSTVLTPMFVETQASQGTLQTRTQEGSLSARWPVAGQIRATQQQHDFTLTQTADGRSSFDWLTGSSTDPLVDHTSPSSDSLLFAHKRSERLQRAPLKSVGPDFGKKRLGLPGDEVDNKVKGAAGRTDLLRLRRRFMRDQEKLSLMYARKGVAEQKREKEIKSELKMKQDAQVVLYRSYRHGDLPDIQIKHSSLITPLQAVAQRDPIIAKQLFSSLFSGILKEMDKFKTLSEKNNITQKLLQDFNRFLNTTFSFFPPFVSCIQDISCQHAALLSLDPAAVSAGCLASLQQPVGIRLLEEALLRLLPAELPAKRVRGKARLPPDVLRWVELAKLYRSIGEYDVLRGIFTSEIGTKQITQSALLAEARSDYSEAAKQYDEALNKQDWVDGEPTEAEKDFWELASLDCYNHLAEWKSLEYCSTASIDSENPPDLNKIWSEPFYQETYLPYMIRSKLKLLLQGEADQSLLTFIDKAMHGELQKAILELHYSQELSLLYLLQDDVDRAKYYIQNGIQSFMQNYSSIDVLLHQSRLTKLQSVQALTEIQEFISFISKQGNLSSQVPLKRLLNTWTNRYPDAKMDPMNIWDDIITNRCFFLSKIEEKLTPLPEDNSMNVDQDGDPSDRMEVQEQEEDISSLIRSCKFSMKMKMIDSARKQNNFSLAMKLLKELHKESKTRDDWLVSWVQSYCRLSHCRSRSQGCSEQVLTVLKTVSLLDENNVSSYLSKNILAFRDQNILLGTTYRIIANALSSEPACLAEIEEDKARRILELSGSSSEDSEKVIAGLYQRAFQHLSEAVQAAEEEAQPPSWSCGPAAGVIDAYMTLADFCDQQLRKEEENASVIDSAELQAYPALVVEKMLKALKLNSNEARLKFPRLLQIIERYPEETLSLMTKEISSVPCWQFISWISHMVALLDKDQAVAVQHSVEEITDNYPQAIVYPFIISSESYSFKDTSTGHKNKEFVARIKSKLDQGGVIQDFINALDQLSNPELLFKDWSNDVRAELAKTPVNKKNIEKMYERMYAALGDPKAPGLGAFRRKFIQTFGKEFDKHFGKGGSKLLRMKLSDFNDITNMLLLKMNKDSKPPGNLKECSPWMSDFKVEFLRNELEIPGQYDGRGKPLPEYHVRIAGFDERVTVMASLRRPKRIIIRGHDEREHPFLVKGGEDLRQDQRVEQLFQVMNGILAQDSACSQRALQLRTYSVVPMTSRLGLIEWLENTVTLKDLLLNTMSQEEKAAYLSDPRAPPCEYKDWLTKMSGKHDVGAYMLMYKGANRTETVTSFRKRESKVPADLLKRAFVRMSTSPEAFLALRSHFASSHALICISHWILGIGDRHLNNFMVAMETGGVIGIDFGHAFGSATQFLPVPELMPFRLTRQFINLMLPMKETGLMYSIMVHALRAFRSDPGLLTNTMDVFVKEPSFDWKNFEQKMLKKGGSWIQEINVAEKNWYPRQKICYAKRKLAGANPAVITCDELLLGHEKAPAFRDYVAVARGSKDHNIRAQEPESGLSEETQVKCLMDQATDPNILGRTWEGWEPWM
Description: FIG. 14: Bio-CA associated proteins. […] After SDS-PAGE analysis and Coomassie staining, gel slices were trypsin-digested and sent to mass spectrometry analysis.
To identify cellular proteins associated with CA, a biotinylated form of the compound (Bio-CA) was used. […] The Bio-CA was used to cover streptavidin-coated magnetic beads to pull down interacting proteins from either uninfected or chronically infected lysates of cells grown in the presence or absence of CA for 48 hours (FIG. 14D). The identity of the proteins pulled down under the different conditions was determined by HPLC MS/MS analysis. The proteins were identified with a greater than 95% confidence using a proprietary Scripps proteomics software package for protein identification, statistical analysis, and mass/peptide sequence correlation. The HIV proteome was added to the proteomics software search database before analysis. Many proteins were identified in uninfected untreated and in chronically untreated samples (approximately 300), however only 53 were displaced by more than 50% by the presence of CA. Of these 53 proteins, it appears that at least 2 may have a role in HIV-1 replication: DNA-dependent protein kinase catalytic subunit (DNA-PK) and helicase like transcription factor (HLTF).

CMV and MLV promoters = assay: Transcription from CMV and MLV promoters; type: cell-based
Source text: DNA-PK was identified as a binding partner of CA by mass spectrometry and further confirmation of this interaction was provided by performing a pull down assay (FIG. 15). Without wishing to be bound by theory, it was hypothesized that part of the mechanism by which CA inhibits HIV replication is by blocking the accrued DNA-PK phosphorylation of Sp1 mediated by Tat with a consequent reduction in both basal and Tat-mediated transcriptional activation of the HIV LTR promoter. Sp1 is thought to be essential for basal transcription and Tat-mediated activation of HIV-1.

[5] = tested on: human umbilical vein endothelial cells (HUVECs); settings: read-out: average half maximal inhibitory concentration (IC50), anti-proliferative; cited from earlier work
CDK11 [6] = target: CDK11 (Homo sapiens, UniProt Q9BWU1); settings: cited from earlier work
CDK11 (Homo sapiens, UniProt Q9BWU1), sequence (Q9BWU1 whole entry): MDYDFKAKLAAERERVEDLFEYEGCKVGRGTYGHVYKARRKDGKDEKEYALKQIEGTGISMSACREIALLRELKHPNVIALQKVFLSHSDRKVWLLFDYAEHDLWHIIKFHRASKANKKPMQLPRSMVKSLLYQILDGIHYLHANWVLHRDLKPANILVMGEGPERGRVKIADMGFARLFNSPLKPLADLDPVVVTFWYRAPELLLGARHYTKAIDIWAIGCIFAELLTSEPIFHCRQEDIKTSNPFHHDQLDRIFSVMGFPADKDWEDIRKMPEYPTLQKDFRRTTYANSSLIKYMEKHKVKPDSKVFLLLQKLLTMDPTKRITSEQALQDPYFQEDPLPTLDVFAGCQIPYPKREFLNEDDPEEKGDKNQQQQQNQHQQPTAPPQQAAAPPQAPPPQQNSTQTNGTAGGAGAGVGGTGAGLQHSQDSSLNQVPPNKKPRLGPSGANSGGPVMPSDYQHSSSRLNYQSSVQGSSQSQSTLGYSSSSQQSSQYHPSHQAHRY

CDK8 = CDK8 (Homo sapiens, UniProt P49336); settings: cited from earlier work
CDK8, sequence (P49336 whole entry): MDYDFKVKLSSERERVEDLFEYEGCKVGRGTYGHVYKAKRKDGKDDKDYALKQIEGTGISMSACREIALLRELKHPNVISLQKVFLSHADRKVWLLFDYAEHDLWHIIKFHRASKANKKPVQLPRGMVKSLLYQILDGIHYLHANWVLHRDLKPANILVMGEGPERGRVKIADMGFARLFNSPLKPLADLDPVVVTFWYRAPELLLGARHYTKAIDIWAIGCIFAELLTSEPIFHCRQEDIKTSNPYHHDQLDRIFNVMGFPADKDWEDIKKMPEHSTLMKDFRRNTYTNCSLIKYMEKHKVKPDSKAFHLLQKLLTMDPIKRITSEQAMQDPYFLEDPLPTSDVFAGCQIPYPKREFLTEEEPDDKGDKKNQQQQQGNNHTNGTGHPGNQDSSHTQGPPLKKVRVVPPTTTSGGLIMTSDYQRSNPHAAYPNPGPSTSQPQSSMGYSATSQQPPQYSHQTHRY

ROCK II = ROCK II (Homo sapiens, UniProt O75116); settings: cited from earlier work
Sp1 = Sp1 (Homo sapiens, UniProt P08047); assay: Bio-CA pull-down, Sp1
Description: HEK293T cells were transfected with wt-Tat101-flag, vvtTat86-flag, Tat86mutant-TAR domain, CDK11-flag or 9G8-flag as negative control. Forty hours later, protein extracts were incubated with DYNABEADS® MYONE™ Streptavidin T1 coated with either biotin or Biotinylated-CA. Pulled down proteins analyzed by Western blot with the indicated antibodies.

RNA polymerase = assay: Bio-CA pull-down, RNA polymerase
CDK11 [7] = target: CDK11 (Homo sapiens, UniProt P21127); assay: Biotinylated compound pull-down of CDK11; type: binding; design: expressed in transfected cells; host or cells: HEK293T
Description: as §1, §2

HIV-1 pNL43 = assay: HIV-1 replication in PHA/IL-2 stimulated human PBMCs, p24 ELISA; type: cell-based; settings: p24 ELISA, 5 days post infection
Description: Freshly isolated uninfected human PBMCs were stimulated with PHA for two days, washed, and grown from then on in IL-2 alone. […] Antigen p24 was measured 5 days post infection using a sandwich ELISA kit.
To isolate PBMCs, 24 ml of total blood diluted two fold in RPMI or PBS were carefully layered over 12 ml of Ficoll-paque and centrifuged at 2000 rpm for 20 min (brakes off). Resultant layers are approximately from top to bottom: plasma-platelets-PBMC-Ficoll-red blood cells (with granulocytes). Most of the plasma was pipetted off and discarded. The buffy coat with PBMC's was carefully removed from 3 large (50 ml) tubes and transferred to a new 50 ml tube. The remaining Ficoll and red blood cells were discarded in closed tubes. Enough PBS was added to the PBMCs to make up 50 ml and centrifuged at 1200 rpm for 10 min, brakes on. The supernatant was decanted and the pellet was loosened and washed twice with PBS. Washed pellet was recovered in 30 ml of RPMI 1640 supplemented with 10% serum, 1% Penicillin-streptomycin and mixed well. PBMCs were counted and plated at 1×10^6 cells/ml. To activate the PBMCs, PHA (phytohaemagglutinin) was added at 3 μg/ml. Two to three days later add Interleukin 2 (IL2) at 3×10^−3 μg/ml.
PHA activated PBMCs were centrifuged and recovered at 6×10^6 cells in 3 ml complete RPMI. Then 3 ml of viral supernatant was added and incubated for 4 h at 37° C. After this period, cells were centrifuged, washed 3 times with PBS and recovered in 3 ml complete RPMI. PBMCs were plated at 0.5 ml per well in a 6-well plate, and 0.5 ml media with DMSO control or anti-viral control at 2× final concentration was added. IL-2 was added at 3×10^−3 μg/ml. Supernatant was recovered for p24 assay every 3-4 days post infection. Cells were split at 1×10^6 cell per ml every 5-7 days.
HIV-1 transcription is intimately linked to T-cell activation due to shared motifs between the HIV-LTR and the regulatory regions in induced genes, namely NF-κB. A large variety of T cell stimuli activate NF-κB, including PHA, IL-2 and tumor necrosis factor alpha (TNF-α).

Q: With `Cc1cn([C@H]2C[C@H](N=[N+]=[N-])[C@@H](CO)O2)c(=O)[nH]c1=O` [AZT, zidovudine, reference compound] as the compound, how does the EC50 (HIV-1 pNL4-3 [1]) read?
A: The EC50 was 5.2 nM.

Q: Which results are given for `CN(C)[C@H]1C[C@@]23CC[C@@]4(O2)C(=CC[C@]2(C)C(c5ccc6ccncc6c5)=CC[C@H]24)C=C3[C@@H](OC(=O)CCCCCNC(=O)CCCC[C@@H]2SC[C@@H]3NC(=O)N[C@@H]32)[C@@H]1O.O=C(O)C(F)(F)F.O=C(O)C(F)(F)F` [Bio-CA]?
A: EC50 relative to CA (HIV-1 pNL4-3 [2]): 10 fold; viability of the cells (HeLa-CD4 cells): did not compromise the viability of the cells

Q: What does the source list for `CN(C)C1CC23CCC4(O2)C(=CCC2(C)C(c5ccc6ccncc6c5)CCC42)C=C3C(O)C1O` (stereo not shown) [CA, Cortistatin A]?
A: EC50 for the inhibition of HIV activity (HIV-1 pNL4-3 [2]): picomolar to low nanomolar range; competition for binding of recombinant Tat to Bio-dCA (Tat): competed; interaction with Tat (pull-down) (Tat; flag-tagged Tat expressed in cells or recombinant Tat): interacts; interaction with TAR-nonbinding basic region Tat mutant (pull-down) [3]: not; interaction with DNA-PK [4]: seems to interact; transcription activity from CMV and MLV promoters (CMV and MLV promoters): reduces the transcription activity; IC50 [5]: 350 nM; Kd (CDK11 [6]): 10 ± 2 nM; Kd (CDK8): 17 ± 2 nM; Kd (ROCK II): 220 ± 2 nM; interaction with Sp1 (Sp1): not observed; pull down of RNA polymerase (RNA polymerase): shown to pull down; interaction with CDK11 (pull-down) (CDK11 [7]): did not interact

Q: Which results are given for `Cc1nnc(C(=O)NC(C)(C)c2nc(C(=O)NCc3ccc(F)cc3)c(O)c(=O)n2C)o1` [Raltegravir, reference compound]?
A: competition for binding of recombinant Tat to Bio-dCA (Tat): not; EC50, HIV-1 replication in primary cells (PBMCs) (HIV-1 pNL43): similar

Q: With `CC(C)(C)NC(=O)[C@@H]1C[C@@H]2CCCC[C@@H]2CN1C[C@@H](O)[C@H](Cc1ccccc1)NC(=O)[C@H](CC(N)=O)NC(=O)c1ccc2ccccc2n1` [saquinavir, reference compound] as the compound, how does the “EC50, HIV-1 replication in primary cells (PBMCs)” value (HIV-1 pNL43) read?
A: The value was “similar”.

Reference: US9682994B2, “Inhibitors of retroviral replication” (The Scripps Research Institute, priority 2011, dated 2017)
